Where a name gives a salt, the structure may show the parent alone.
What was measured:
Format in all cases: physicochemical
[1] = In vitro aerosolization performance (Next Generation Impactor) of beclomethasone dipropionate MDI formulations in HFA-152a with varying ethanol and glycerol; details: immediately after preparation
Description: A number of experiments were conducted to investigate the effects of glycerol on the in vitro aerosolization performance of drug formulations of beclomethasone dipropionate delivered from a metered dose inhaler (MDI) using HFA-152a as the propellant.
Pharmaceutical formulations of beclomethasone dipropionate were prepared in HFA-152a (Mexichem, UK). […] Anhydrous ethanol in an amount of 5, 10 or 15 weight % based on the total weight of the formulation and glycerol in an amount of 0, 1 or 2 weight %, again based on the total weight of the formulation, were then added to the canisters. […] The nominal dose of beclomethasone dipropionate was […].

[2] = Chemical stability (total impurities) of beclomethasone dipropionate formulations with varying ethanol and glycerol in uncoated aluminium cans; details: for % Total Imps T = 0 / % Total Imps T = 1 M @ 40° C./75% RH / % Total Imps T = 3 M @ 40° C./75% RH: uncoated aluminium cans
Description: A number of experiments were conducted to investigate the stability of beclomethasone dipropionate in HFA-134a and HFA-152a.
Anhydrous ethanol in an amount of 5, 10 or 15 weight % based on the total weight of the formulation and glycerol in an amount of 0, 1 or 2 weight %, again based on the total weight of the formulation, were then added to the canisters. […] The nominal dose of beclomethasone dipropionate was […].

[3] = In vitro aerosolization performance (Next Generation Impactor) of beclomethasone dipropionate / formoterol fumarate dihydrate combination MDI formulations; details: after 1 month at ambient conditions, NGI 30 L/min
[4] = 5 wt. % ethanol, 0 wt. % glycerol
[5] = 5 wt. % ethanol, 1 wt. % glycerol
[6] = 5 wt. % ethanol, 2 wt. % glycerol
[7] = 10 wt. % ethanol, 0 wt. % glycerol
[8] = 10 wt. % ethanol, 1 wt. % glycerol
[9] = 10 wt. % ethanol, 2 wt. % glycerol
[10] = 15 wt. % ethanol, 0 wt. % glycerol
[11] = 15 wt. % ethanol, 1 wt. % glycerol
[12] = 15 wt. % ethanol, 2 wt. % glycerol
[13] = HFA-134a, 5 wt. % ethanol, 0 wt. % glycerol
[14] = HFA-134a, 5 wt. % ethanol, 1 wt. % glycerol
[15] = HFA-134a, 5 wt. % ethanol, 2 wt. % glycerol
[16] = HFA-134a, 10 wt. % ethanol, 0 wt. % glycerol
[17] = HFA-134a, 10 wt. % ethanol, 1 wt. % glycerol
[18] = HFA-134a, 10 wt. % ethanol, 2 wt. % glycerol
[19] = HFA-134a, 15 wt. % ethanol, 0 wt. % glycerol
[20] = HFA-134a, 15 wt. % ethanol, 1 wt. % glycerol
[21] = HFA-134a, 15 wt. % ethanol, 2 wt. % glycerol
[22] = HFA-152a, 5 wt. % ethanol, 0 wt. % glycerol
[23] = HFA-152a, 5 wt. % ethanol, 1 wt. % glycerol
[24] = HFA-152a, 5 wt. % ethanol, 2 wt. % glycerol
[25] = HFA-152a, 10 wt. % ethanol, 0 wt. % glycerol
[26] = HFA-152a, 10 wt. % ethanol, 1 wt. % glycerol
[27] = HFA-152a, 10 wt. % ethanol, 2 wt. % glycerol
[28] = HFA-152a, 15 wt. % ethanol, 0 wt. % glycerol
[29] = HFA-152a, 15 wt. % ethanol, 1 wt. % glycerol
[30] = HFA-152a, 15 wt. % ethanol, 2 wt. % glycerol
[31] = combination formulation in HFA-134a and 10 weight % ethanol
[32] = combination formulation in HFA-152a and 10 weight % ethanol

Structure (SMILES): CCC(=O)OCC(=O)[C@@]1(OC(=O)CC)[C@@H](C)C[C@H]2[C@@H]3CCC4=CC(=O)C=C[C@]4(C)[C@@]3(Cl)[C@@H](O)C[C@@]21C [beclomethasone dipropionate]
- FPFED [1, 4]: 65.17%
- FPM [1, 4]: 114.36 µg
- MMAD (μm) ± GSD [1, 4]: 1.27 ± 1.80 μm
- FPFED [1, 5]: 67.97%
- FPM [1, 5]: 123.94 µg
- MMAD (μm) ± GSD [1, 5]: 1.55 ± 1.93 μm
- FPFED [1, 6]: 65.69%
- FPM [1, 6]: 120.25 µg
- MMAD (μm) ± GSD [1, 6]: 1.62 ± 2.06 μm
- FPFED [1, 7]: 59.47%
- FPM [1, 7]: 117.15 µg
- MMAD (μm) ± GSD [1, 7]: 1.33 ± 1.84 μm
- FPFED [1, 8]: 58.64%
- FPM [1, 8]: 116.83 µg
- MMAD (μm) ± GSD [1, 8]: 2.09 ± 1.92 μm
- FPFED [1, 9]: 55.76%
- FPM [1, 9]: 104.23 µg
- MMAD (μm) ± GSD [1, 9]: 2.19 ± 2.12 μm
- FPFED [1, 10]: 50.99%
- FPM [1, 10]: 102.86 µg
- MMAD (μm) ± GSD [1, 10]: 1.42 ± 2.02 μm
- FPFED [1, 11]: 48.85%
- FPM [1, 11]: 96.11 µg
- MMAD (μm) ± GSD [1, 11]: 2.29 ± 2.06 μm
- FPFED [1, 12]: 43.57%
- FPM [1, 12]: 83.04 µg
- MMAD (μm) ± GSD [1, 12]: 2.59 ± 2.12 μm
- % Total Imps T = 0 [2, 13]: 0.89%
- % Total Imps T = 1 M @ 40° C./75% RH [2, 13]: 1.58%
- % Total Imps T = 3 M @ 40° C./75% RH [2, 13]: 2.08%
- % Total Imps T = 0 [2, 14]: 0.34%
- % Total Imps T = 1 M @ 40° C./75% RH [2, 14]: 1.91%
- % Total Imps T = 3 M @ 40° C./75% RH [2, 14]: 2.14%
- % Total Imps T = 0 [2, 15]: 0.55%
- % Total Imps T = 1 M @ 40° C./75% RH [2, 15]: 0.78%
- % Total Imps T = 3 M @ 40° C./75% RH [2, 15]: 1.18%
- % Total Imps T = 0 [2, 16]: 1.16%
- % Total Imps T = 1 M @ 40° C./75% RH [2, 16]: 1.82%
- % Total Imps T = 3 M @ 40° C./75% RH [2, 16]: 2.21%
- % Total Imps T = 0 [2, 17]: 1.34%
- % Total Imps T = 1 M @ 40° C./75% RH [2, 17]: 2.25%
- % Total Imps T = 3 M @ 40° C./75% RH [2, 17]: 2.49%
- % Total Imps T = 0 [2, 18]: 1.49%
- % Total Imps T = 1 M @ 40° C./75% RH [2, 18]: 1.97%
- % Total Imps T = 3 M @ 40° C./75% RH [2, 18]: 2.35%
- % Total Imps T = 0 [2, 19]: 1.08%
- % Total Imps T = 1 M @ 40° C./75% RH [2, 19]: 2.35%
- % Total Imps T = 3 M @ 40° C./75% RH [2, 19]: 4.21%
- % Total Imps T = 0 [2, 20]: 2.88%
- % Total Imps T = 1 M @ 40° C./75% RH [2, 20]: 3.15%
- % Total Imps T = 3 M @ 40° C./75% RH [2, 20]: 3.99%
- % Total Imps T = 0 [2, 21]: 2.95%
- % Total Imps T = 1 M @ 40° C./75% RH [2, 21]: 4.22%
- % Total Imps T = 3 M @ 40° C./75% RH [2, 21]: 4.89%
- % Total Imps T = 0 [2, 22]: 0.08%
- % Total Imps T = 1 M @ 40° C./75% RH [2, 22]: 0.16%
- % Total Imps T = 3 M @ 40° C./75% RH [2, 22]: 0.35%
- % Total Imps T = 0 [2, 23]: 0.11%
- % Total Imps T = 1 M @ 40° C./75% RH [2, 23]: 0.15%
- % Total Imps T = 3 M @ 40° C./75% RH [2, 23]: 0.28%
- % Total Imps T = 0 [2, 24]: 0.09%
- % Total Imps T = 1 M @ 40° C./75% RH [2, 24]: 0.21%
- % Total Imps T = 3 M @ 40° C./75% RH [2, 24]: 0.34%
- % Total Imps T = 0 [2, 25]: 0.21%
- % Total Imps T = 1 M @ 40° C./75% RH [2, 25]: 0.35%
- % Total Imps T = 3 M @ 40° C./75% RH [2, 25]: 0.42%
- % Total Imps T = 0 [2, 26]: 0.34%
- % Total Imps T = 1 M @ 40° C./75% RH [2, 26]: 0.36%
- % Total Imps T = 3 M @ 40° C./75% RH [2, 26]: 0.55%
- % Total Imps T = 0 [2, 27]: 0.23%
- % Total Imps T = 1 M @ 40° C./75% RH [2, 27]: 0.29%
- % Total Imps T = 3 M @ 40° C./75% RH [2, 27]: 0.31%
- % Total Imps T = 0 [2, 28]: 0.56%
- % Total Imps T = 1 M @ 40° C./75% RH [2, 28]: 0.89%
- % Total Imps T = 3 M @ 40° C./75% RH [2, 28]: 1.11%
- % Total Imps T = 0 [2, 29]: 0.66%
- % Total Imps T = 1 M @ 40° C./75% RH [2, 29]: 0.79%
- % Total Imps T = 3 M @ 40° C./75% RH [2, 29]: 1.56%
- % Total Imps T = 0 [2, 30]: 0.72%
- % Total Imps T = 1 M @ 40° C./75% RH [2, 30]: 0.89%
- % Total Imps T = 3 M @ 40° C./75% RH [2, 30]: 1.48%
- stability with HFA-152a as propellant rather than HFA-134a ([2]; all investigated levels of ethanol and glycerol, comparison of Tables 10 and 11): significantly higher
- FPFED % [3, 31]: 63.16%
- Fine Particle Dose [3, 31]: 98.92 µg
- MMAD ± GSD [3, 31]: 1.41 ± 1.95 μm
- FPFED % [3, 32]: 55.67%
- Fine Particle Dose [3, 32]: 105.11 µg
- MMAD ± GSD [3, 32]: 1.57 ± 1.98 μm

Structure (SMILES): COc1ccc(CC(C)NCC(O)c2ccc(O)c(NC=O)c2)cc1 (stereo not shown) [formoterol fumarate dihydrate]
- FPFED % [3, 31]: 66.35%
- Fine Particle Dose [3, 31]: 3.67 µg
- MMAD ± GSD [3, 31]: 1.36 ± 2.00 μm
- FPFED % [3, 32]: 60.01%
- Fine Particle Dose [3, 32]: 3.57 µg
- MMAD ± GSD [3, 32]: 1.51 ± 2.08 μm

Reference: patent US20200016174A1, “PHARMACEUTICAL COMPOSITION” (MEXICHEM FLUOR S.A. DE C.V., priority 2016, published 2020)
